# Measurements published in patent US12173018B2, “Penicillin-binding protein inhibitors” (priority 2018, dated 2024).
# Like-named read-outs stand apart in the source and are kept apart here.
# Assays:
# [1] = test system: N. gonorrhoeae FA19; experiment: Liquid broth MIC, N. gonorrhoeae FA19; format: cell-based; conditions: Neisseria gonorrhoeae; N. gonorrhoeae FA19, liquid broth; read-out: Minimum Inhibitory Concentration, N. gonorrhoeae FA19
# Procedure, shortened: (§1)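 Growth inhibition was scored by eye as the lowest compound concentration free of bacterial growth. Cultures from Kellogg's-supplemented GC agar, diluted to 5×10^5 CFU/mL, were exposed to serially diluted compound for 40-42 h at 36° C under 5% CO2.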
# [2] = test system: K. pneumoniae 848844; experiment: microbe, parasite or virus in culture; format: cell-based, Klebsiella pneumoniae
# Procedure, shortened: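 Strains are tested by standard CLSI broth microdilution. Log-phase cells, diluted by OD600 to 5×10^5 CFU/mL, meet 2-fold compound series and incubate 16-20 hours at 37° C before the lowest growth-free concentration is recorded.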
# [3] = test system: N. gonorrhoeae ATCC 49226; experiment: Liquid broth MIC, N. gonorrhoeae ATCC 49226; format: cell-based; conditions: Neisseria gonorrhoeae, ATCC49226; N. gonorrhoeae ATCC 49226, liquid broth; read-out: Minimum Inhibitory Concentration, N. gonorrhoeae ATCC 49226
# Procedure, shortened: as §1
# [4] = test system: E. coli AG100; experiment: Broth microdilution MIC, E. coli AG100 (wild-type parent); format: cell-based; conditions: Escherichia coli
# Procedure, shortened: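 Broth microdilution in cation-supplemented Mueller-Hinton broth, 2-fold serial compound dilutions, inoculum 5×10^5 CFU/mL from 3-5 h log culture.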
# [5] = test system: N. gonorrhoeae WHO F; experiment: Liquid broth MIC, N. gonorrhoeae WHO F; format: cell-based; conditions: Neisseria gonorrhoeae; N. gonorrhoeae WHO F, liquid broth; read-out: Minimum Inhibitory Concentration, N. gonorrhoeae WHO F
# Procedure, shortened: as §1
# [6] = target: E. coli PBP3 (Escherichia coli (strain K12), UniProt P0AD68); experiment: E. coli PBP3 Bocillin-FL fluorescence polarization competition binding assay
# Chain of E. coli PBP3 (P0AD68 whole entry): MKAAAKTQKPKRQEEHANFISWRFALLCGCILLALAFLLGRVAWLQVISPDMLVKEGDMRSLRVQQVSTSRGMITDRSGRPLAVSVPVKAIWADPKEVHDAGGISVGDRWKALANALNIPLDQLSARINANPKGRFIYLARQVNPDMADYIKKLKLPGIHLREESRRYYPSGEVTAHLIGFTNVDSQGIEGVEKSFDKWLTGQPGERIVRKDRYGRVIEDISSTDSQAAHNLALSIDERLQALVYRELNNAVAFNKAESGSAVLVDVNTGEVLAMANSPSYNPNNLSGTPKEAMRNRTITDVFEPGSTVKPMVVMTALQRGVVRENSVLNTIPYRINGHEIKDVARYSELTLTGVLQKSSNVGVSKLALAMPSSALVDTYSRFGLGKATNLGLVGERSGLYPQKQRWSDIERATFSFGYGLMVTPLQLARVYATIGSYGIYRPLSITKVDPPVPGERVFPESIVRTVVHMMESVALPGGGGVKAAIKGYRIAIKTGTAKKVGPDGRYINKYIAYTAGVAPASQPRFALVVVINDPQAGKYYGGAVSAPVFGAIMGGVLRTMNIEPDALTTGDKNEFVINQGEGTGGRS
# Procedure, shortened: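 Competition against 0.1 μM Bocillin-FL for binding to 1.5 μM purified protein, read by fluorescence polarization for 60 min. Compounds tested from 0 to 1000 μM; EC50 taken as the concentration reducing probe binding.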
# [7] = Klebsiella pneumoniae, K. pneumoniae 848844 producing SHV-11 and KPC-2, read-out: MIC K. pneumoniae 848844
# [8] = wild-type parent E. coli AG100, broth microdilution, read-out: MIC E. coli AG100
# [9] = fluorescence polarization competition binding with Bocillin-FL, read-out: E. coli K12 PBP3 Potency
SMILES,MIC [1] [µg/mL],"MIC [2, 7] [µg/mL]",MIC [3] [µg/mL],"MIC [4, 8] [µg/mL]",MIC [5] [µg/mL],"EC50 [6, 9] [µM]",EC50 [6] [µM],"MIC ([2]; Klebsiella pneumoniae, 848844, read-out: MIC K. pneumoniae 848844) [µg/mL]","MIC ([4]; AG100, read-out: MIC E. coli AG100) [µg/mL]"
"CCN1CCN(C(=O)NC(C(=O)N[C@H]2Cc3cccc(C(=O)O)c3OB2O)c2csc(N)n2)C(=O)C1=O (stereo partly drawn) [Example 5, (3R)-3-(2-(2-aminothiazol-4-yl)-2-(4-ethyl-2,3-dioxopiperazine-1-carboxamido)acetamido)-2-hydroxy-3,4-dihydro-2H-benzo[e][1,2]oxaborinine-8-carboxylic acid]",1 to 2,32 to 64,1 to 2,8 to 16,< 0.125,,,,
CCN1CCN(C(=O)NC(C(=O)N[C@H]2Cc3cccc(C(=O)O)c3OB2O)c2ccc(O)c(O)c2F)C(=O)C1=O (stereo partly shown) [Example 70],1 to 2,8 to 16,0.25 to 0.5,2 to 4,< 0.125,< 30,,,
"CCN1CCN(C(=O)NC(C(=O)N[C@H]2Cc3ccc(F)c(C(=O)O)c3OB2O)c2csc(N)n2)C(=O)C1=O (stereo partly drawn) [Example 109, (3R)-3-(2-(2-aminothiazol-4-yl)-2-(4-ethyl-2,3-dioxopiperazine-1-carboxamido)acetamido)-7-fluoro-2-hydroxy-3,4-dihydro-2H-benzo[e][1,2]oxaborinine-8-carboxylic acid]",4 to 8,32 to 64,1 to 2,8 to 16,0.25 to 0.5,< 30,,,
CCN1CCN(C(=O)NC(C(=O)N[C@H]2Cc3cccc(C(=O)O)c3OB2O)c2ccc(B(O)O)cc2)C(=O)C1=O (stereo partly shown) [Example 112],1 to 2,,1 to 2,,< 0.125,,30 to 500,> 128,32 to 64
"O=C(O)c1cccc2c1OB(O)[C@@H](NC(=O)C(NC(=O)N1CCN(CCF)C(=O)C1=O)c1ccc(B(O)O)cc1)C2 (stereo partly drawn) [Example 113, (3R)-3-(2-(4-boronophenyl)-2-(4-(2-fluoroethyl)-2,3-dioxopiperazine-1-carboxamido)acetamido)-2-hydroxy-3,4-dihydro-2H-benzo[e][1,2]oxaborinine-8-carboxylic acid]",1 to 2,> 128,1 to 2,32 to 64,< 0.125,,30 to 500,,
"CCN1CCN(C(=O)NC(C(=O)N[C@H]2Cc3ccc(F)c(C(=O)O)c3OB2O)c2ccc(O)c(O)c2Cl)C(=O)C1=O (stereo partly drawn) [Example 124, (3R)-3-(2-(2-chloro-3,4-dihydroxyphenyl)-2-(4-ethyl-2,3-dioxopiperazine-1-carboxamido)acetamido)-7-fluoro-2-hydroxy-3,4-dihydro-2H-benzo[e][1,2]oxaborinine-8-carboxylic acid]",4 to 8,> 128,1 to 2,0.5 to 1,< 0.125,,30 to 500,,
CCCN1CCN(C(=O)NC(C(=O)N[C@H]2Cc3ccc(F)c(C(=O)O)c3OB2O)c2ccc(O)c(O)c2Cl)C(=O)C1=O (stereo partly shown) [Example 125],16 to 32,,4 to 8,2 to 4,0.25 to 0.5,,30 to 500,,
O=C(O)c1c(F)ccc2c1OB(O)[C@@H](NC(=O)C(NC(=O)N1CCN(CCF)C(=O)C1=O)c1ccc(O)c(O)c1Cl)C2 (stereo partly shown) [Example 131],4 to 8,32 to 64,4 to 8,8 to 16,0.25 to 0.5,,30 to 500,,
"CCN1CCN(C(=O)NC(C(=O)N[C@H]2Cc3cccc(C(=O)O)c3OB2O)c2ncc(O)cc2F)C(=O)C1=O (stereo partly drawn) [Example 135, (3R)-3-(2-(4-ethyl-2,3-dioxopiperazine-1-carboxamido)-2-(3-fluoro-5-hydroxypyridin-2-yl)acetamido)-2-hydroxy-3,4-dihydro-2H-benzo[e][1,2]oxaborinine-8-carboxylic acid]",1 to 2,32 to 64,1 to 2,8 to 16,< 0.125,< 30,,,
"CCN1CCN(C(=O)NC(C(=O)N[C@H]2Cc3ccc(F)c(C(=O)O)c3OB2O)c2cc(O)c(O)cc2F)C(=O)C1=O (stereo partly drawn) [Example 136, (3R)-3-(2-(4-ethyl-2,3-dioxopiperazine-1-carboxamido)-2-(2-fluoro-4,5-dihydroxyphenyl)acetamido)-7-fluoro-2-hydroxy-3,4-dihydro-2H-benzo[e][1,2]oxaborinine-8-carboxylic acid]",4 to 8,32 to 64,1 to 2,2 to 4,1 to 2,< 30,,,
"CCN1CCN(C(=O)NC(C(=O)N[C@H]2Cc3ccc(F)c(C(=O)O)c3OB2O)c2ncc(O)cc2F)C(=O)C1=O (stereo partly drawn) [Example 145, (3R)-3-(2-(4-ethyl-2,3-dioxopiperazine-1-carboxamido)-2-(3-fluoro-5-hydroxypyridin-2-yl)acetamido)-7-fluoro-2-hydroxy-3,4-dihydro-2H-benzo[e][1,2]oxaborinine-8-carboxylic acid]",1 to 2,32 to 64,0.25 to 0.5,8 to 16,< 0.125,< 30,,,
"CCN1CCN(C(=O)NC(C(=O)N[C@H]2Cc3ccc(F)c(C(=O)O)c3OB2O)c2ccc(O)c(O)c2F)C(=O)C1=O (stereo partly drawn) [Example 149, (3R)-3-(2-(4-ethyl-2,3-dioxopiperazine-1-carboxamido)-2-(2-fluoro-3,4-dihydroxyphenyl)acetamido)-7-fluoro-2-hydroxy-3,4-dihydro-2H-benzo[e][1,2]oxaborinine-8-carboxylic acid]",1 to 2,2 to 4,1 to 2,2 to 4,< 0.125,,30 to 500,,
"CCN1CCN(C(=O)NC(C(=O)N[C@H]2Cc3cccc(C(=O)O)c3OB2O)c2ncc(O)cc2Cl)C(=O)C1=O (stereo partly drawn) [Example 150, (3R)-3-(2-(4-ethyl-2,3-dioxopiperazine-1-carboxamido)-2-(3-chloro-5-hydroxypyridin-2-yl)acetamido)-2-hydroxy-3,4-dihydro-2H-benzo[e][1,2]oxaborinine-8-carboxylic acid]",4 to 8,> 128,4 to 8,32 to 64,0.25 to 0.5,< 30,,,
"CCN1CCN(C(=O)NC(C(=O)N[C@H]2Cc3ccc(F)c(C(=O)O)c3OB2O)c2ncc(O)cc2Cl)C(=O)C1=O (stereo partly drawn) [Example 151, (3R)-3-(2-(3-chloro-5-hydroxypyridin-2-yl)-2-(4-ethyl-2,3-dioxopiperazine-1-carboxamido)acetamido)-7-fluoro-2-hydroxy-3,4-dihydro-2H-benzo[e][1,2]oxaborinine-8-carboxylic acid]",4 to 8,> 128,1 to 2,32 to 64,< 0.125,< 30,,,
"CCN1CCN(C(=O)N[C@@H](C(=O)N[C@H]2Cc3ccc(F)c(C(=O)O)c3OB2O)c2ccc(O)c(F)c2)C(=O)C1=O [Example 161, (R)-3-((R)-2-(4-ethyl-2,3-dioxopiperazine-1-carboxamido)-2-(3-fluoro-4-hydroxyphenyl)acetamido)-7-fluoro-2-hydroxy-3,4-dihydro-2H-benzo[e][1,2]oxaborinine-8-carboxylic acid]",1 to 2,> 128,1 to 2,> 128,< 0.125,< 30,,,
